Structures are written as SMILES.

The test system of the experiment is ring stage parasites. Kind of experiment: Parasite growth potency assay, 72 hours, LDH readout. It is filed as cell-based. Particulars: 72 h, parasite growth measured by LDH assay after 72 hours at 37° C.; 0.7% rings, 2% haematocrit; read-out: EC50. The essentials:
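Parasite growth was quantified by LDH assay after a −80 °C freeze-thaw. Before that, compound was incubated for 72 h at 37 °C under humidified gas with ring-stage cultures adjusted to 0.7% parasitemia and 2% haematocrit in serum- and albumax-supplemented RPMI-Hepes.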
`CCC1(CC)CC(=O)N(C(CCOC)c2ccc(C(F)(F)F)c(C(=O)N[C@@H]3c4ccccc4OC[C@H]3O)c2)C(=N)N1` (stereo partly drawn) [Example 243, 5-[1-(4,4-diethyl-2-imino-6-oxo-hexahydropyrimidin-1-yl)-3-methoxy-propyl]-N-[(3S,4R)-3-hydroxychroman-4-yl]-2-(trifluoromethyl)benzamide]: the EC50 was 6.4 nM.

As to `CCC1(CC)CC(=O)N(C(CCOC)c2ccc(C(F)(F)F)c(C(=O)N[C@@H]3c4ccccc4OC[C@@]3(C)O)c2)C(=N)N1` (stereo partly drawn) [Example 244, 5-[1-(4,4-diethyl-2-imino-6-oxo-hexahydropyrimidin-1-yl)-3-methoxy-propyl]-N-[(3S,4R)-3-hydroxy-3-methyl-chroman-4-yl]-2-(trifluoromethyl)benzamide], the EC50 is 6.13 nM.

For `CCC1(CC)CC(=O)N(C(CCOC)c2ccc(C(F)(F)F)c(C(=O)N[C@@H]3c4ccccc4OC[C@]3(C)O)c2)C(=N)N1` (stereo partly drawn) [Example 245, 5-[1-(4,4-diethyl-2-imino-6-oxo-hexahydropyrimidin-1-yl)-3-methoxy-propyl]-N-[(3R,4R)-3-hydroxy-3-methyl-chroman-4-yl]-2-(trifluoromethyl)benzamide], the EC50 was determined as 1.6 nM.

For the compound `CCC1(CC)CC(=O)N(C(CCOC)c2ccc(C(F)(F)F)c(C(=O)N[C@@H]3c4ccccc4OC(C)(C)[C@H]3O)c2)C(=N)N1` (stereo partly drawn) [Example 246, 5-[1-(4,4-diethyl-2-imino-6-oxo-hexahydropyrimidin-1-yl)-3-methoxy-propyl]-N-[(3S,4R)-3-hydroxy-2,2-dimethyl-chroman-4-yl]-2-(trifluoromethyl)benzamide], the EC50 was found to be 1.74 nM.

The values are drawn from US12629374B2, “Antimalarial agents” (Merck Sharp & Dohme LLC, priority 2020, dated 2026).
